{"source": "ChEMBL document CHEMBL4321874", "about": "(J Med Chem, 2020)", "key": {"[1]": {"experiment": "AUC(0 to 8 hrs) in mouse at 10 mg/kg, po dosed via cassette dosing", "type": "ADME, organism-based", "parameters": "time < 6 hr, dose 10 mg/kg, route oral", "conditions": "in vivo"}, "[2]": {"target": "T1, Cell division cycle 7-related protein kinase (Homo sapiens, UniProt O00311)", "experiment": "Inhibition of ATP-specific reporter probe binding to CDC7 (unknown origin) assessed as equilibrium dissociation constant incubated for 60 mins by proteros reporter displacement assay"}, "[3]": {"target": "T2, CDC7/DBF4 (Cell division cycle 7-related protein kinase/Activator of S phase kinase) (Homo sapiens, UniProt O00311)", "experiment": "Inhibition of N-terminal GST-fused full-length human CDC7 (1 to 574 end residues)/DBF4 (1 to 674 residues) expressed in baculovirus expression system using MCM2 as substrate preincubated with enzyme for 60 mins prior to 50 uM ATP addition by HTRF transcreener ADP assay"}, "Mus musculus": {"system": "Mus musculus", "experiment": "In vivo inhibition of CDC7 in BALB/c mouse xenografted with human COLO205 cells assessed as reduction in MCM2 phosphorylation at Ser40/41 residue in tumor at 100 mg/kg, po after 4 hrs by Western blot analysis", "type": "functional", "conditions": "COLO 205, po"}, "CDK8/Cyclin C": {"target": "CDK8/Cyclin C (Homo sapiens, UniProt P49336)", "experiment": "Inhibition of kinase tracer 236 binding to recombinant full-length human His-tagged CDK8/CyclinC expressed in baculovirus expression system by Lanthascreen Eu kinase binding assay"}, "[4]": {"target": "Homeodomain-interacting protein kinase 4 (Homo sapiens, UniProt Q8NE63)", "experiment": "Inhibition of recombinant full-length human N-terminal GST-tagged HIPK4 expressed in baculovirus expression system by Z'-LYTE assay"}, "COLO 205 [5]": {"system": "COLO 205", "experiment": "Antiproliferative activity against human COLO205 cells assessed as reduction in cell growth after 3 days by CellTiter-Glo luminescence assay", "type": "functional, cell-based", "conditions": "COLO 205, 72 h"}, "[6]": {"target": "Cyclin-dependent kinase 2/cyclin E1 (Homo sapiens, UniProt P24941)", "experiment": "Inhibition of N-terminal GST-tagged full-length human CDK2 (1 to 298 residues)/Cyclin E (1 to 410 residues) expressed in baculovirus expression system using histone H1 as susbtrate after 90 mins by Kinase-Glo luminescence assay"}, "[7]": {"experiment": "Cmax in mouse at 10 mg/kg, po dosed via cassette dosing", "type": "ADME, organism-based", "parameters": "dose 10 mg/kg, route oral", "conditions": "in vivo"}, "[8]": {"target": "T2, CDC7/DBF4 (Cell division cycle 7-related protein kinase/Activator of S phase kinase)", "experiment": "Inhibition of N-terminal GST-fused full-length human CDC7 (1 to 574 end residues)/DBF4 (1 to 674 residues) expressed in baculovirus expression system using MCM2 as substrate in presence of 50 uM ATP by HTRF transcreener ADP assay"}, "[9]": {"target": "Dual specificity tyrosine-phosphorylation-regulated kinase 1B (Homo sapiens, UniProt Q9Y463)", "experiment": "Inhibition of recombinant full-length human GST-tagged DYRK1B expressed in baculovirus expression system by Z'-LYTE assay"}, "COLO 205 [10]": {"system": "COLO 205", "experiment": "Antitumour activity against human COLO205 cells xenografted in Balb/c mouse assessed as inhibition of tumor growth at 50 to 100 mg/kg, po administered BID for 14 days and measured every 2 to 3 days relative to untreated control", "type": "functional"}, "[11]": {"target": "Rho-associated protein kinase 1 (Homo sapiens, UniProt Q13464)", "experiment": "Inhibition of N-terminal GST-tagged human ROCK1 catalytic domain (1 to 477 residues) expressed in baculovirus expression system using biotin-STK-substrate 2 as substrate preincubated with enzyme for 5 mins followed by ATP addition and measured after 2 hrs by TR-FRET assay"}, "Myotonin-protein kinase": {"target": "Myotonin-protein kinase (Homo sapiens, UniProt Q09013)", "experiment": "Inhibition of kinase tracer 236 binding to recombinant full-length human GST-tagged DMPK expressed in baculovirus expression system by Lanthascreen Eu kinase binding assay"}, "[12]": {"target": "Death-associated protein kinase 1 (Homo sapiens, UniProt P53355)", "experiment": "Inhibition of recombinant human N-terminal GST-tagged DAPK1 catalytic domain (1 to 363 residues) expressed in baculovirus expression system by Adapta kinase assay"}, "[13]": {"target": "T1, Cell division cycle 7-related protein kinase", "experiment": "Inhibition of CDC7 in human HeLa cells assessed as inhibition of MCM2 phosphorylation at Ser40 residue in human HeLa cells after 7 hrs by Western blot analysis", "type": "cell-based"}, "[14]": {"experiment": "Toxicity in BALB/c mouse xenografted with human COLO205 cells assessed as effect on body weight at 50 to 100 mg/kg , po adminstered BID for 14 days and measured every 2 to 3 days", "type": "organism-based", "conditions": "in vivo"}, "[15]": {"target": "T2, CDC7/DBF4 (Cell division cycle 7-related protein kinase/Activator of S phase kinase)", "experiment": "Inhibition of N-terminal GST-fused full-length human CDC7 (1 to 574 end residues)/DBF4 (1 to 674 residues) expressed in baculovirus expression system using MCM2 as substrate preincubated with enzyme for 10 mins prior to 1 uM ATP addition by HTRF transcreener ADP assay"}, "[16]": {"target": "Dual specificity tyrosine-phosphorylation-regulated kinase 1A (Homo sapiens, UniProt Q13627)", "experiment": "Inhibition of recombinant full-length human GST-tagged DYRK1A expressed in baculovirus expression system by Z'-LYTE assay"}, "[17]": {"target": "Dual specificity protein kinase CLK1 (Homo sapiens, UniProt P49759)", "experiment": "Inhibition of recombinant human GST-tagged CLK1 catalytic domain (129 to 484 residues) expressed in Escherichia coli by Z'-LYTE assay"}, "[18]": {"experiment": "Drug metabolism assessed as (4bS)-2-(3-Methyl-1H-pyrazol-4-yl)-5,6,7,8-tetrahydropyrido-[1',2':3,4]imidazo[1,5-a]thieno[3,2-d]pyrimidin-12(4bH)-one formaldehyde adduct formation by measuring retention time at 5 nmol after 30 mins in presence of excess formaldehyde by QTOF-UPLC analysis", "type": "physicochemical", "conditions": "0.5 h"}}, "data": [{"smiles": "Cc1n[nH]cc1-c1cc2nc([C@@H]3CCCCN3)[nH]c(=O)c2s1.Cl.Cl", "values": [{"measurement": "AUC(0-t) at 6 h", "setting": "[1]", "result": 1350, "unit": "ng·h/mL"}, {"measurement": "Kd", "setting": "[2]", "result": 1.96, "unit": "nM"}, {"measurement": "IC50", "setting": "[3]", "result": 0.41, "unit": "nM"}, {"measurement": "inhibition in vivo at 100 mg/kg", "setting": "Mus musculus", "result": 72, "unit": "%"}, {"measurement": "IC50", "setting": "CDK8/Cyclin C", "result": 351, "unit": "nM"}, {"measurement": "IC50", "setting": "[4]", "result": 176, "unit": "nM"}, {"measurement": "EC50", "setting": "COLO 205 [5]", "result": 130, "unit": "nM"}, {"measurement": "IC50", "setting": "[6]", "result": 6500, "unit": "nM"}, {"measurement": "Cmax", "setting": "[7]", "result": 978, "unit": "ng/mL"}, {"measurement": "IC50", "setting": "[8]", "result": 120, "unit": "nM"}, {"measurement": "IC50", "setting": "[9]", "result": 78.6, "unit": "nM"}, {"measurement": "T/C", "setting": "COLO 205 [10]", "result": 6, "unit": "%"}, {"measurement": "IC50", "setting": "[11]", "result": 420, "unit": "nM"}, {"measurement": "IC50", "setting": "Myotonin-protein kinase", "result": 64.6, "unit": "nM"}, {"measurement": "IC50", "setting": "[12]", "result": 203, "unit": "nM"}, {"measurement": "IC50", "setting": "[13]", "result": 36, "unit": "nM"}, {"measurement": "Activity", "setting": "[14]", "result": "Non-Toxic"}, {"measurement": "IC50", "setting": "[15]", "result": 0.44, "unit": "nM"}, {"measurement": "IC50", "setting": "[16]", "result": 59, "unit": "nM"}, {"measurement": "IC50", "setting": "[17]", "result": 310, "unit": "nM"}]}, {"smiles": "Cc1n[nH]cc1-c1cc2nc([C@@H]3CCCCN3)[nH]c(=O)c2s1", "values": [{"measurement": "Retention_time", "setting": "[18]", "result": 4.31, "unit": "min"}]}]}
